ChEMBL document CHEMBL5154879, “Induction of Genes Implicated in Stress Response and Autophagy by a Novel Quinolin-8-yl-nicotinamide QN523 in Pancreatic Cancer” (J Med Chem, 2022)
Calls of active or inactive are those of the source. The calls are words filed in the database; no cut-off is given here.

How the values were obtained:
[1] = Toxicity in NOD/SCID mouse xenografted with human MIA PaCa-2 cells assessed as weakness at 10 to 20 mg/kg, ip administered five times a week for 44 days; assay type: organism-based; conditions: in vivo, 1056 h, dose 10-20 mg/kg, time 44 day
[2] = system: MIA PaCa-2; assay: Induction of apoptosis in human MIA PaCa-2 cells assessed as viable cells at 0.5 uM incubated for 48 hrs by Annexin V-FITC/PI staining based flow cytometry analysis (reference value: 96.3%); assay type: functional; conditions: read-out: Activity
[3] = system: MIA PaCa-2; assay: Induction of cell cycle arrest in human MIA PaCa-2 cells assessed as accumulation of cells in G2/M phase at 0.1 uM incubated for 24 hrs by RNase/propidium iodide staining based flow cytometry analysis (reference value: 8.11%); assay type: functional
[4] = Downregulation of LMNB2 gene expression in human MIA PaCa-2 cells assessed as fold change in LMNB2 expression at 1 uM incubated for 24 hrs by Bru-seq analysis relative to control; assay type: functional
[5] = system: SNU-387; assay: Antiproliferative activity against human SNU-387 cells assessed as inhibition of cell growth incubated for 72 hrs by MTT assay; assay type: functional, cell-based; conditions: SNU-387, 72 h
[6] = Downregulation of SEMA4C gene expression in human MIA PaCa-2 cells assessed as fold change in SEMA4C expression at 1 uM incubated for 24 hrs by Bru-seq analysis relative to control; assay type: functional
[7] = system: MIA PaCa-2; assay: Upregulation of ER- related gene expression in human MIA PaCa-2 cells; assay type: functional, cell-based
[8] = Downregulation of TNFAIP8LI gene expression in human MIA PaCa-2 cells assessed as fold change in TNFAIP8LI expression at 1 uM incubated for 24 hrs by Bru-seq analysis relative to control; assay type: functional
[9] = Downregulation of TRAF7 gene expression in human MIA PaCa-2 cells assessed as fold change in TRAF7 expression at 1 uM incubated for 24 hrs by Bru-seq analysis relative to control; assay type: functional
[10] = Downregulation of CCNF gene expression in human MIA PaCa-2 cells assessed as fold change in CCNF expression at 1 uM incubated for 24 hrs by Bru-seq analysis relative to control; assay type: functional
[11] = system: MIA PaCa-2; assay: Induction of apoptosis in human MIA PaCa-2 cells assessed as live cells at 0.1 uM incubated for 48 hrs by Annexin V-FITC/PI staining based flow cytometry analysis (reference value: 96.3%); assay type: functional
[12] = system: SNU-475; assay: Antiproliferative activity against human SNU-475 cells assessed as inhibition of cell growth incubated for 72 hrs by MTT assay; assay type: functional, cell-based; conditions: SNU-475, 72 h
[13] = Toxicity in NOD/SCID mouse xenografted with human MIA PaCa- 2 cells assessed as morphological changes in heart at 10 to 20 mg/kg, ip administered five times a week for 44 days by H and E staining based inverted microscopic analysis; assay type: organism-based; conditions: in vivo, 1056 h, dose 10-20 mg/kg, time 44 day
[14] = Downregulation of SEMA6B gene expression in human MIA PaCa-2 cells assessed as fold change in SEMA6B expression at 1 uM incubated for 24 hrs by Bru-seq analysis relative to control; assay type: functional
[15] = system: MIA PaCa-2; assay: Induction of ER stress pathway in human MIA PaCa-2 cells by ingenuity pathway analysis; assay type: functional, cell-based
[16] = system: MIA PaCa-2; assay: Upregulation of apoptosis transcription gene expression in human MIA PaCa-2 cells; assay type: functional, cell-based
[17] = Toxicity in NOD/SCID mouse xenografted with human MIA PaCa-2 cells assessed as weight loss at 10 to 20 mg/kg, ip administered five times a week for 44 days; assay type: organism-based; conditions: in vivo, 1056 h, dose 10-20 mg/kg, time 44 day
[18] = system: Jurkat; assay: Antiproliferative activity against human Jurkat cells assessed as inhibition of cell growth incubated for 72 hrs by MTT assay; assay type: functional, cell-based
[19] = Toxicity in NOD/SCID mouse xenografted with human MIA PaCa- 2 cells assessed as morphological changes in pancreas at 10 to 20 mg/kg, ip administered five times a week for 44 days by H and E staining based inverted microscopic analysis; assay type: organism-based; conditions: in vivo, 1056 h, dose 10-20 mg/kg, time 44 day
[20] = Downregulation of STK1I gene expression in human MIA PaCa-2 cells assessed as fold change in STK1I expression at 1 uM incubated for 24 hrs by Bru-seq analysis relative to control; assay type: functional
[21] = system: MIA PaCa-2; assay: Cytotoxicity against human MIA PaCa-2 cells assessed as inhibition of cell growth incubated for 72 hrs by MTT assay; assay type: functional, cell-based; conditions: MIA PaCa-2, 72 h
[22] = Downregulation of TACC3 gene expression in human MIA PaCa-2 cells assessed as fold change in TACC3 expression at 1 uM incubated for 24 hrs by Bru-seq analysis relative to control; assay type: functional
[23] = Downregulation of SMAD6 gene expression in human MIA PaCa-2 cells assessed as fold change in SMAD6 expression at 1 uM incubated for 24 hrs by Bru-seq analysis relative to control; assay type: functional
[24] = system: MIA PaCa-2; assay: Induction of cell cycle arrest in human MIA PaCa-2 cells assessed as accumulation of cells at S phase at 0.5 uM incubated for 24 hrs by RNase/propidium iodide staining based flow cytometry analysis (Rvb =27.6 %); assay type: functional
[25] = system: Hep 3B2; assay: Antiproliferative activity against human Hep3B cells assessed as inhibition of cell growth incubated for 72 hrs by MTT assay; assay type: functional, cell-based
[26] = Downregulation of PLKI gene expression in human MIA PaCa-2 cells assessed as fold change in PLKI expression at 1 uM incubated for 24 hrs by Bru-seq analysis relative to control; assay type: functional
[27] = system: MIA PaCa-2; assay: Induction of circadian rhythm signaling pathway in human MIA PaCa-2 cells by ingenuity pathway analysis; assay type: functional, cell-based

With `O=C(Nc1cccc2cccnc12)c1cnccn1` the Activity [1] was “Non-Toxic”, the viability at 0.5 µM [2] was 95.3% and the Activity [3] was 14.9%. For the same compound, the “fold change (FC)” value [4] was 0.46, the IC50 [5] was 5730 nM and the “fold change (FC)” value [6] was 0.39. For the same compound, the Activity [7] was “Active”, the “fold change (FC)” value [8] was 0.32 and the “fold change (FC)” value [9] was 0.39. The “fold change (FC)” value [10] was 0.36, the Activity [11] was 92% and the IC50 [12] was 2670 nM. The Activity [13] was “Non-Toxic”, the “fold change (FC)” value [14] was 0.43 and the Activity [15] was “Active”. The Activity [16] was “Active”, the Activity [17] was “Non-Toxic” and the IC50 [18] was 100 nM. The Activity [19] was “Non-Toxic”, the “fold change (FC)” value [20] was 0.4 and the IC50 [21] was 110 nM. For the same compound, the “fold change (FC)” value [22] was 0.45, the “fold change (FC)” value [23] was 0.44 and the Activity [24] was 45.1%. For the same compound, the IC50 [25] was 210 nM, the “fold change (FC)” value [26] was 0.47 and the Activity [27] was “Active”.
